Patent publication US6545051B1, “Antibacterial hydroxamic acid derivatives” (British Biotech Pharmaceuticals, Ltd., priority 1999, dated 2003)
In brackets after ≈: the same amount, converted by molar mass.

What was measured:
[1] = test system: Staphylococcus capitis (American Type Culture Collection number 35661); assay: Minimal inhibitory concentration (MIC) against Staphylococcus capitis; type: cell-based; settings: 2×YT broth, 37° C., 18 hours, lowest drug concentration that inhibited visible growth
Description: Minimal inhibitory concentrations (MIC) of inhibitors against E. coli strain DH5α (Genotype; F-φ80dlacZΔM 15Δ(lacZYA-argF)U 169 deoR recA1 endA1 hsdR17(rk^−, mk^+)phoA supE44λ^−thi-1 gyrA96 relA1) obtained from GibcoBRL Life Technologies, or Staphylococcus capitis (American Type Culture Collection number 35661) were determined as follows. Stock solutions of each test compound were prepared by dissolution of the compound in dimethylsulfoxide at 10 mM. For the determination of the minimal inhibitory concentration, two fold serial dilutions were prepared in 2×YT broth (typtone 16 g/1, yeast extract 10 g/1, sodium chloride 5 g/1 obtained from BIO 101 Inc, 1070 Joshua Way, Vista, Calif. 92083, USA) to yield 0.05 ml compound-containing medium per well. Inocula were prepared from cultures grown overnight in 2×YT broth at 37° C. Cell densities were adjusted to absorbance at 660 nm (A660)=0.1; the optical density-standardized preparations were diluted 1:1000 in 2×YT broth; and each well inoculated with 0.05 ml of the diluted bacteria. Microtiter plates were incubated at 37° C. for 18 hours in a humidified incubator. The MIC (μM) was recorded as the lowest drug concentration that inhibited visible growth.

| MIC [1] | melting point | Structure (SMILES) |
| --- | --- | --- |
| 100 µM (≈ 40.7 µg/mL) |  | CCCCCC[C@H](CC(=O)NO)C(=O)N[C@@H](Cc1ccccc1)C(=O)OC(C)C |
|  | 198 to 203 °C | CCOC(=O)[C@@H](NC(=O)[C@H](CC(C)C)[C@H](C)C(=O)NO)C(C)(C)C [Example 2] |
